Data set [1] can be described thus: in vitro. The following applies: dog, MDCK.
Data set [2] is described as follows: physchem. The following applies: PBS buffer, pH 7.4.
Data set [3] in a line: in vitro. Conditions: human, Caco-2.

Values after ≈ are worked out from the molar mass of the structure shown. Square brackets hold non-standard residues; d marks the D form. Peptide text beside a SMILES is read from it. Lys(Me2) = CN(C)CCCC[C@H](N)C(=O)O; NMeT = CN[C@H](C(=O)O)[C@@H](C)O; NMeA = CN[C@@H](C)C(=O)O

In the case of `CC(C)C[C@@H]1NC(=O)[C@H]([C@@H](C)O)N(C)C(=O)[C@H]2CCCN2C(=O)[C@H](CC(C)C)NC(=O)[C@H](C)N(C)C(=O)[C@H](CC(C)C)NC(=O)[C@H]([C@@H](C)O)N(C)C(=O)[C@H]2CCCN2C(=O)[C@H](CC(C)C)NC(=O)[C@H](C)N(C)C1=O` (cyclo(L[NMeA]L[dP][NMeT]L[NMeA]L[dP][NMeT])), the Papp A→B at 2 h in data set [1] stood at 5.93 nm/s. Besides, in data set [2], the solubility was 880 µM (≈ 922 µg/mL). In data set [3], `C[C@@H]1NC(=O)[C@H](CCCCN)NC(=O)[C@H](Cc2ccccc2)NC(=O)[C@H](Cc2ccc(O)cc2)NC(=O)[C@H](CO)NC1=O` (cyclo(ASYFK)) yielded an apparent permeability from apical to basolateral (Papp A→B) at 1 h of 8.3 nm/s.

Turning to `COC[C@@H]1NC(=O)[C@H](CC(N)=O)NC(=O)[C@H](CCCCN(C)C)NC(=O)[C@H](Cc2ccccc2)NC(=O)[C@H](Cc2ccc(OC)cc2)NC1=O` (cyclo([Lys(Me2)]NS(Me)Y(Me)F)), the Papp A→B at 1 h in data set [3] stood at 55.5 nm/s.

The Papp A→B is the apparent permeability from the apical to the basolateral side of a cell layer. In general, solubility refers to the concentration that dissolves in the medium under given conditions.

The values above are taken from ChEMBL document CHEMBL6153018, “Macrocycles and macrocyclization in anticancer drug discovery: Important pieces of the puzzle” (Eur J Med Chem, 2024).
